Measurements from patent US9593305B2, “Differentiation of pluripotent stem cells” (Janssen Biotech, Inc., priority 2008, dated 2017).

Test system: H1 p49C3 cells
Experiment: Differentiation on microcarrier beads, cell number and CXCR4 by flow cytometry (Example 22)
Format: cell-based, human
Conditions: three days
Protocol: H1 p49C3 cells were routinely grown on Cytodex3 beads (GE Healthcare Life Sciences, NJ) in a 125 ml spinner flask, according to the methods described in U.S. Patent Application No. 61/116,447. After seven days, cells and beads were transferred to a 6 well plate at a ratio of 30 cm^2 bead surface area per well, and the plate was placed on a rocking platform. Cells on beads in the positive control treatment well (designated AA/Wnt3a) were differentiated with addition of 100 ng/ml activin A (PeproTech; Cat #120-14) and 20 ng/ml Wnt3a (R&D Systems; Cat #1324-WN/CF) for two days followed by 100 ng/ml activin A and 8 ng/ml bFGF (PeproTech Inc.; Cat #: 100-18B) for one day in RPMI-1640 (Invitrogen; Cat #: 22400) with 2% Fatty Acid Free BSA (MP Biomedicals, Inc; Cat #152401) using volumes of 2 ml/well. Compound 34, at a final concentration of 2.5 nM was added to a negative control treatment well (designated CMP alone (JNJ alone)) in RPMI-1640 with 2% Fatty Acid Free BSA (2 ml/well) for three days in the absence of any other growth factor treatment. […]
At the conclusion of treatment and culture, cells were harvested from the beads, according to the methods described in U.S. Patent Application No. 61/116,447. The harvested cells were counted and analyzed by flow cytometry, according to the methods described above. […]

SMILES: O=C1CCN2CCN(CC2)Cc2cc(Cl)cc(c2)Nc2ncnc(n2)-c2cncc(c2)CCCN1 [Compound 34, 5-Chloro-1,8,10,12,16,22,26,32-octaazapentacyclo[24.2.2.1˜3.7˜0.1˜9,13˜0.1˜14.18˜]tritriaconta-3(33), 4,6,9(32), 10,12,14(31), 15,17-nonaen-23-one]
- differentiation into CXCR4 positive cells (Compound 34 alone, no growth factor, Cytodex3 beads): did not differentiate into CXCR4 positive cells
- CXCR4 expression, % of the cells, on average (Compound 34 with the various growth factor combinations including 50 ng/ml GDF-8, Cytodex3 beads): 50%
